Source: article PMC9305971, “Development of [^18F]AmBF3 Tetrazine for Radiolabeling of Peptides: Preclinical Evaluation and PET Imaging of [^18F]AmBF3-PEG7-Tyr^3-Octreotide in an AR42J Pancreatic Carcinoma Model” (Bioconjugate Chemistry, 2022)
Like-named read-outs stand apart in the source and are kept apart here.

Assay: Distribution of radioactivity in blood components after i.v. administration
Format: in vivo, mice
Method: Whole blood from mice were extracted during ex vivo studies, using cardiac puncture. The sample was applied in a microtube containing 1% heparin solution in 0.9% NaCl (aq.) (2 μL); the sample was centrifuged (1000g, 10 min), the total radioactivity in the sample was measured with a γ counter, the supernatant was separated from the pellet (RBC containing fraction), and cold ACN (500 μL) was added. The sample was centrifuged (10,000g, 5 min) to remove the free fraction from the precipitated protein-containing pellet. The pellet (protein-bound fraction) and the supernatant (free fraction) were measured with a γ counter, and a sample (100 μL) was injected into HPLC and spotted (4 μL) on a TLC plate (radio-TLC, TLC silica gel 60 F254, ACN/water 80:20).

[1] = 60 min post injection, blocked with octreotide

Question: Which results are given for `C[C@@H](O)[C@@H]1NC(=O)[C@H](CCCCN)NC(=O)[C@@H](Cc2c[nH]c3ccccc23)NC(=O)[C@H](Cc2ccc(O)cc2)NC(=O)[C@@H](NC(=O)[C@@H](Cc2ccccc2)NC(=O)CCOCCOCCOCCOCCON=Cc2ccc(CNC(=O)OC3CCCc4cnnc(-c5ccc(CC(=O)NCC[N+](C)(C)C[B-](F)(F)F)cc5)c4CC3)cc2)CSSC[C@@H](C(=O)N[C@H](CO)[C@@H](C)O)NC1=O` (stereo partly drawn) [[^18F]14]?
Answer: protein bound fraction (5 min post injection): 5.5%; radioactivity bound to red blood cells (5 min post injection): 22%; radioactivity bound to red blood cells (5 min post injection, listed as [18F]14): 21.6%; protein bound fraction (60 min post injection): 7.00%; radioactivity bound to red blood cells (60 min post injection): 25%; protein bound fraction [1]: 14.6%; radioactivity bound to red blood cells [1]: 29.7 ± 2.9%; radioactivity bound to red blood cells (60 min post injection, blocked with octreotide, listed as [18F]14): 29.7%; radioactivity bound to red blood cells (60 min post injection, listed as [18F]14): 24.5%; fraction unbound at 5 min (mouse, whole blood, intravenous, 5 min post injection, read-out: free fraction): 0.729 ± 0.051; fraction unbound at 60 min (mouse, whole blood, intravenous, 60 min post injection, blocked with octreotide, read-out: free fraction): 0.557 ± 0.114; fraction unbound at 60 min (mouse, whole blood, intravenous, 60 min post injection, read-out: free fraction): 0.685 ± 0.053
